Source: patent US10457707B2, “Substituted urea depsipeptide analogs as activators of the CLPP endopeptidase” (priority 2015, dated 2019)
Values after ≈ are worked out from the molar mass of the structure shown. *1 amine or outer side, *2 acyl side, *3 side chain or, on linkers, in order; H or OH if unused. Where a SMILES comes first, the peptide text is derived from it. Bridges are numbered along the chain shown (N, C = ends). [ ]: non-standard residue; d: D form. The star is where a group is joined. Phe(3,5-F2) = N[C@@H](Cc1cc(F)cc(F)c1)C(=O)O; Morpholine(3S-CO) = O=C(O)[C@@H]1COCCN1; NH(4-Cl-2-F-phenyl) = Fc1cc(Cl)ccc1N*; Pro(4R-Me) = C[C@H]1CN[C@H](C(=O)O)C1; Hyp = O=C(O)[C@@H]1C[C@@H](O)CN1; aThr = C[C@H](O)[C@H](N)C(=O)O; CO = O=C([*:1])[*:2]

Tests used:
Type in all cases: cell-based
[1] = test system: Staphylococcus aureus, USA 300; assay: Minimal inhibitory concentration assay; details: USA300, read-out: Minimal Inhibitory Concentrations S. aureus USA 300
Method in brief: (§1)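 CLSI broth microdilution; 2-fold series from 200 μM final; inoculum ~10^5 cfu/mL; 37 °C, aerobic, overnight; visual MIC = lowest conc. without growth. The ClpP-inactivated USA 300 strain is the comparator for ClpP-dependent killing.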

[2] = test system: Staphylococcus aureus, USA 300 wherein ClpP is inactivated; assay: Minimal inhibitory concentration assay
Method in brief: as §1

[3] = test system: Streptococcus pneumoniae, R6; assay: Minimal inhibitory concentration assay; details: read-out: Minimal Inhibitory Concentrations S. pneumoniae R6
Method in brief: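 Microbroth dilution with two-fold serial compound dilutions in broth, incubated aerobically overnight at 37° C. MIC taken as the lowest concentration preventing bacterial growth.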

[4] = test system: Enterococcus faecalis, ATCC 33186; assay: Minimal inhibitory concentration assay (microbroth dilution); details: Enterococcus faecalis, ATCC33186; read-out: Minimal Inhibitory Concentrations E. faecalis ATCC 33186
Method in brief: as §1

[5] = Cytotoxicity assay (CellTiter-Glo cell viability, 72 hours); details: African green monkey
Method in brief: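 Vero cells, 5000/well, grown overnight at 37° C, 5% CO2 in DMEM with 10% FBS, then exposed to serial compound dilutions or DMSO for 72 hours. Viability read by CellTiter-Glo luminescence. IC50 from duplicate wells, reported as range over two independent experiments.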

Structure (SMILES): C[C@@H]1C[C@H]2C(=O)O[C@@H](C)[C@H](NC(=O)[C@H](Cc3cc(F)cc(F)c3)NC(=O)Nc3ccc(Cl)cc3F)C(=O)N3C[C@H](O)C[C@H]3C(=O)N3CCOC[C@H]3C(=O)N[C@@H](C)C(=O)N2C1 [Compound 316, (S)-2-(3-(4-chloro-2-fluorophenyl)ureido)-3-(3,5-difluorophenyl)-N-((6aS,8R,12S,13S,15aS,17R,21S,23aS)-8-hydroxy-13,17,21-trimethyl-6,11,15,20,23-pentaoxooctadecahydro-6H,11H,15H-[1,4]oxazino[3,4-i]dipyrrolo[2,1-c:2′,1′-l][1]oxa[4,7,10,13]tetraazacyclo-hexadecin-12-yl)propanamide] ({NH(4-Cl-2-F-phenyl)-CO}-[Phe(3,5-F2)][aThr][Hyp][Morpholine(3S-CO)]A[Pro(4R-Me)]; ester 2-C)
- MIC [1]: 0.156 µM (≈ 0.135 µg/mL)
- Minimal Inhibitory Concentrations S. aureus USA 300 ΔClpP [2]: >20 µM
- MIC [3]: < 0.02 µM
- MIC [4]: 0.078 µM (≈ 0.0674 µg/mL)
- IC50 at 72 h [5]: > 100 µM
